Assay results as given in patent publication US20040115176A1, “Fibrin-based tissue-engineered vasculature” (priority 2002, published 2004).

What was measured:
Type in all cases: cell-based, ovine
fibrin gel constructs [1] = assay: Isolated tissue bath, relaxation of norepinephrine constriction; conditions: isoproterenol compared with SNAP
fibrin gel constructs [2] = assay: Isolated tissue bath, constriction of construct rings; conditions: norepinephrine 3×10^−6 M
fibrin gel constructs [3] = assay: Total weight of fibrin gel vessel constructs; conditions: 10 and 20 μg/ml aprotinin, two week time point
Description: Vessel constructs were left on 4.0 mm silastic tubing in which they were molded, and placed in a 50 ml conical with 30 ml of culture medium. The caps (fixed with 0.22 μm filter) were either attached to the pulsation device or left unattached. The constructs were incubated in a CO2 incubator at 37° C. and 5% CO2. Forty-eight hours after vessel molding, aprotinin (0-200 μg/ml) was added. Some of the vessel constructs were connected to a pneumatic pulsation system, representing a 5-10% radial distention at 60 beats/minute, and one of two pulsation time interval schemes (continuous or 1 hour per 12 hours). Aprotinin (Sigma), a competitive serine protease inhibitor which forms stable complexes with and blocks the active site of enzymes, was added to the fibrin mixture at 0, 10, 20, or 200 μg/ml of vessel medium. Aprotinin was reconstituted using culture medium, filter sterilized through a 0.22 μm syringe filter, and stored at 2.0 mg/ml/vial at 2-8° C. Tissue sections were weighed and some were placed in 10% buffered formalin for paraffin embedding, while others were placed in isolated tissue baths. The weights of the sections were added to obtain total construct weight. […]

fibrin gel constructs [4] = assay: Hydroxyproline assay for collagen content of constructs
Description: Native tissue and vessel constructs were assayed for hydroxyproline using a modification of the methods of Reddy and Enwemeka (Clinical Biochemistry 29(3):225-9 (1996), which is hereby incorporated by reference in its entirety) to determine total collagen content. Tissues were first dabbed dry, weighed, transferred to eppendorf tubes, and then lyophilized. Samples were mixed with 2N sodium hydroxide in a total volume of 50 μl and hydrolyzed by autoclaving at 120° C. for 20 min. To the hydrolyzate was added 450 μl of chloramines-T solution containing 1.27 gm chloramines-T (Sigma) dissolved in 20 ml 50% n-propanol (Fisher) and brought to 100 ml with acetate citrate buffer containing 120 gm sodium acetate trihydrate (Fisher), 46 gm citric acid (Fisher), 12 ml acetic acid (Fisher), 34 gm sodium hydroxide bringing to 1 liter with distilled water and pH to 6.5. Mixing gently, the oxidation was allowed to proceed for 25 minutes at room temp. Samples were then gently mixed with 500 μl of Ehrlich's Reagent containing 15 gm p-dimethylaminobenzaldehyde (p-DMBA) (Sigma) dissolved in n-propanol/perchloric acid (2:1 v/v) (Fisher) and brought to 100 ml. The resulting 96-well plate of 200 μl samples was read using a spectrophotometer set to 550 nm to determine optical density, which was then correlated with collagen amount using a standard curve and a conversion factor of 8.0 μg collagen to 1 μg 4-hydroxyproline (Edwards and O'Brien, Clinica Chimica Acta 104(2):161-7 (1980), which is hereby incorporated by reference in its entirety).
Hydroxyproline is an imino acid found specifically in type I collagen at 12.5% of the total by weight. This spectrophotometric assay was used to quantitate directly the collagen content of tissue homogenates. The values are represented as μg of collagen/mg of tissue, dry weight.

fibrin gel constructs [5] = assay: PCNA staining, percentage of proliferating cells
Description: Proliferating cell nuclear antigen stain (“PCNA”) was used to identify and quantitate the percentage of proliferating cells within the tissue-engineered vessel constructs of the present invention. PCNA is a 36 kD molecule highly conserved between species. PCNA functions as a co-factor for DNA polymerase delta in S phase and also during DNA synthesis associated with repair. The PCNA molecule has a half life greater than 20 hours and, therefore, may detect non-proliferating cells in Go phase. Tissue section were fixed in 10% buffered formalin, and paraffin embedded. Tissue sections were cut at 4 μm and placed on positive slides. Sections were then deparaffinised and rehydrated to distilled water. Endogenous peroxidase was blocked by placing sections in […] for 10 minutes and then washed in tap water. Antigen retrieval methods were then applied. Sections were either boiled in 0.01M citrate buffer, or placed in a microwave for 30 seconds on low power. Sections were then washed 1×5 minutes in […] (TBS). Sections were placed in diluted normal serum for 10 minutes, incubated with primary antibody, and washed in TBS 2×5 minutes. Sections were also incubated with biotinylated secondary antibody, and washed in TBS 2×5 minutes. Slides were then incubated in ABC reagent (streptavidin/peroxidase complex), and washed in TBS 2×5 minutes. Slides were incubated in DAB (peroxidase substrate), and washed thoroughly in running tap water. The slides were then counterstained with hematoxylin, dehydrated, and mounted. Proliferating cell nuclear antigen (PCNA) was used to identify cells that were in a proliferating state using histological staining methods. FIGS. 11A-D represent constructs that were stained at 1 week (FIGS. 11A and 11B) and 2 weeks (FIGS. 11C and 11D). The constructs in FIGS. 11A and 11C were under non-pulsed conditions. The constructs in FIGS. 11B and 11D were under pulsed conditions. The PCNA antibody was visualized with diaminobenzidine (DAB) and counter stained with hematoxylin. There was little staining visualized at the one week time point as compared to the two week time point for both the non-pulsed and pulsed constructs. The non-pulsed tissue was slightly greater at both one and two weeks. The PCNA staining was quantitated by counting the total number of positive cells per high powered field and dividing by the total number of cells in the same field to obtain percent of proliferation.

fibrin gel constructs [6] = assay: Cell density within vessel constructs (H&E histology)
Description: Histological sections of the vessel constructs that were previously prepared with H&E Stain were used to count total number of cells per area. Random high powered fields were measured using Photo Spot software to calculate the actual surface area. The hematoxylin nuclear stain was used to identify the number of cells per high powered field. This was then used to calculate the number cells per surface area (cells/mm^2). Cell density within vessel constructs of the present invention was calculated using histology sections stained with hematoxylin and eosin. Total number of cells were counted per high powered field, divided by the area measured using Photospot Advanced software, and reported as number of cells/mm^2. […] However, at 10 μg/ml aprotinin and thereafter, both groups were decreased and equal. The altered pulsation group ( 1/12 pulsation) (2 wks, 608±123 cells/mm^2, n=5) was equal to both non-pulsed and pulsed at 20 μg/ml aprotinin (FIG. 17). Considering the change in cell density over time (1, 2, 3, 4 and 8 weeks), they were similar at weeks 1 and 2. […] At weeks 4 and 8, there was a significant difference between the two groups (Non-pulsed: 1 wk, 613±140, n=2; 2 wk, 591±52, n=6; 3 wk, 817±43, n=2; 4 wk, 865±17, n=4; 8 wk, 751±101, n=6; Pulsed: 1 wk, 566±33, n=2; 2 wk, 448±71, n=5; 3 wk, 480±213, n=3; 4 wk, 175±25, n=4; 8 wk, 168±54, n=3) (FIG. 18).

[7] = altered pulsation (1 hour per 12 hours), 20 μg/ml aprotinin, 2 wks
[8] = non-pulsed, 10 μg/ml aprotinin, 14 days
[9] = non-pulsed, 20 μg/ml aprotinin, 4 wk
[10] = non-pulsed, 20 μg/ml aprotinin, 8 wk
[11] = non-pulsed, 20 μg/ml aprotinin, 14 days (2 wk)
[12] = non-pulsed, 200 μg/ml aprotinin, 14 days
[13] = pulsed, 10 μg/ml aprotinin, 14 days
[14] = pulsed, 20 μg/ml aprotinin, 4 wk
[15] = pulsed, 20 μg/ml aprotinin, 8 wk
[16] = pulsed, 20 μg/ml aprotinin, 14 days (2 wk)
[17] = pulsed, 200 μg/ml aprotinin, 14 days
[18] = non-pulsed, 20 μg/ml aprotinin, 1 wk
[19] = non-pulsed, 20 μg/ml aprotinin, 3 wk
[20] = pulsed, 20 μg/ml aprotinin, 1 wk
[21] = pulsed, 20 μg/ml aprotinin, 3 wk

CC(C)NCC(O)c1ccc(O)c(O)c1 (stereo not drawn) [isoproterenol]
relaxation (fibrin gel constructs [1]): much less than that of SNAP

NC[C@H](O)c1ccc(O)c(O)c1 [norepinephrine]
constriction (fibrin gel constructs [2]; non-pulsed constructs, 0 μg/ml aprotinin): 4743±1849 dynes/cm^2 | constriction (fibrin gel constructs [2]; non-pulsed constructs, 200 μg/ml aprotinin): 965±16 dynes/cm^2 | constriction (fibrin gel constructs [2]; pulsed constructs, 10 μg/ml aprotinin): 4316±1738 dynes/cm^2 | constriction (fibrin gel constructs [2]; pulsed constructs, 200 μg/ml aprotinin): 101±102 dynes/cm^2

aprotinin
increase in total tissue weight with later (48 hrs) addition of aprotinin (fibrin gel constructs [3]; non-pulsed): 50% | increase in total tissue weight with later (48 hrs) addition of aprotinin (fibrin gel constructs [3]; pulsed): 130% | collagen content (fibrin gel constructs [4]; [7]): 266.6 ± 20.9 µg/mg | collagen content (fibrin gel constructs [4]; [8]): 175.2 ± 42.3 µg/mg | collagen content (fibrin gel constructs [4]; [9]): 239.9 ± 73.2 µg/mg | collagen content (fibrin gel constructs [4]; [10]): 283.5 ± 80.3 µg/mg | collagen content (fibrin gel constructs [4]; [11]): 225.0 ± 30.2 µg/mg | collagen content (fibrin gel constructs [4]; [12]): 270.1 ± 46.2 µg/mg | collagen content (fibrin gel constructs [4]; [13]): 31.5 ± 22.5 µg/mg | collagen content (fibrin gel constructs [4]; [14]): 124.5 ± 25.1 µg/mg | collagen content (fibrin gel constructs [4]; [15]): 91.8 ± 24.3 µg/mg | collagen content (fibrin gel constructs [4]; [16]): 105.9 ± 16.7 µg/mg | collagen content (fibrin gel constructs [4]; [17]): 217.3 ± 21.0 µg/mg | percent of proliferation (PCNA positive cells) (fibrin gel constructs [5]; [7]): 26.3±5.0% | percent of proliferation (PCNA positive cells) (fibrin gel constructs [5]; [8]): 73.3±8.8% | percent of proliferation (PCNA positive cells) (fibrin gel constructs [5]; [18]): 20.44±44.0% | percent of proliferation (PCNA positive cells) (fibrin gel constructs [5]; [19]): 55.5±4.7% | percent of proliferation (PCNA positive cells) (fibrin gel constructs [5]; [9]): 20.1±7.6% | percent of proliferation (PCNA positive cells) (fibrin gel constructs [5]; [10]): 22.8±3. % | percent of proliferation (PCNA positive cells) (fibrin gel constructs [5]; [11]): 73.6±6.3% | percent of proliferation (PCNA positive cells) (fibrin gel constructs [5]; [12]): 2.9±0.9% | percent of proliferation (PCNA positive cells) (fibrin gel constructs [5]; [13]): 12.3±3.6% | percent of proliferation (PCNA positive cells) (fibrin gel constructs [5]; [20]): 41.7±31.1% | percent of proliferation (PCNA positive cells) (fibrin gel constructs [5]; [21]): 37.5±3.6% | percent of proliferation (PCNA positive cells) (fibrin gel constructs [5]; [14]): 28.0±6.9% | percent of proliferation (PCNA positive cells) (fibrin gel constructs [5]; [15]): 14.7±7.5% | percent of proliferation (PCNA positive cells) (fibrin gel constructs [5]; [16]): 89.6±2.6% | percent of proliferation (PCNA positive cells) (fibrin gel constructs [5]; [17]): 7.7±1.9% | cell density (fibrin gel constructs [6]; [7]): 608±123 cells/mm^2 | cell density (fibrin gel constructs [6]; [8]): 731±108 cells/mm^2 | cell density (fibrin gel constructs [6]; [18]): 613±140 cells/mm^2 | cell density (fibrin gel constructs [6]; [19]): 817±43 cells/mm^2 | cell density (fibrin gel constructs [6]; [9]): 865±17 cells/mm^2 | cell density (fibrin gel constructs [6]; [10]): 751±101 cells/mm^2 | cell density (fibrin gel constructs [6]; [11]): 591±52 cells/mm^2 | cell density (fibrin gel constructs [6]; [12]): 635±98 cells/mm^2 | cell density (fibrin gel constructs [6]; [13]): 611±180 cells/mm^2 | cell density (fibrin gel constructs [6]; [20]): 566±33 cells/mm^2 | cell density (fibrin gel constructs [6]; [21]): 480±213 cells/mm^2 | cell density (fibrin gel constructs [6]; [14]): 175±25 cells/mm^2 | cell density (fibrin gel constructs [6]; [15]): 168±54 cells/mm^2 | cell density (fibrin gel constructs [6]; [16]): 448±71 cells/mm^2 | cell density (fibrin gel constructs [6]; [17]): 390±59 cells/mm^2
